Measured values published in article PMC8315922, “In Vitro Identification and In Vivo Confirmation of Inhibitors for Sweet Potato Chlorotic Stunt Virus RNA Silencing Suppressor, a Viral RNase III” (Journal of Virology, 2021).

Assays:
[1] = molecular target: T1, CSR3 (Sweet potato chlorotic stunt virus, UniProt Q8JJW8); experiment: Binding affinity assay using SPR; conditions: for Kd: unit inferred, read-out: Steady State Affinity
T1 sequence (Q8JJW8 1-228): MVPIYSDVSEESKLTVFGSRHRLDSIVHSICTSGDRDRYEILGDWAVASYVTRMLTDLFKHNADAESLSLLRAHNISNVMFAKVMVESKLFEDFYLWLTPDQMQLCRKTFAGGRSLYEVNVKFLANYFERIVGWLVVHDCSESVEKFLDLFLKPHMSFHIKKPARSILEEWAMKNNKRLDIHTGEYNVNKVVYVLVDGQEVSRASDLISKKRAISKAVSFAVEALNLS
Procedure: Binding affinity assays were first carried out with the 99 commercial compounds using the MST method.
CSR3 was purified as described above and stored in PBS buffer. SPR was performed on a BiacoreT100 instrument (GE Healthcare) using a sensor S CM5 chip (GE Healthcare). CSR3 (10 ng/μl) was immobilized using the standard amine-coupling method according to the manufacturer’s instructions with immobilization buffer (10 mM sodium acetate [pH 4]); the final response unit (RU) value was 11,459. Compounds at a single concentration (100 μM) or consisting of 2-fold serial dilutions (3 μM to 200 μM) were flowed over the sensor surface using PBS buffer with 0.01 M HEPES, 0.05% surfactant P20, and 2% DMSO. […] To eliminate bulk interference by DMSO, a solvent correction consisting of DMSO at concentrations ranging from 1.5% to 2.8% was carried out for every 30 samples. Steady-state affinity (KD) values were determined using BiacoreT100 Evaluation software, v.2.04 (GE Healthcare).

[2] = test system: SPCSV; conditions: plants in soil, 10 μM foliar spray twice a week for 1 month, vs water-treated
Procedure: (§1) Compounds were administered by regular foliar spray over 1 month.
(§2) Sweetpotato plants cultivar 'Huachano' (accession CIP420065) were side-graft inoculated with both SPFMV (East African strain isolate Nam1) and SPCSV-Ug (East African serotype 2) as described previously ([62]). Plantlets were propagated by taking single-node stems grown in a plant culture medium ([33]). Next, plantlets with newly formed roots were transferred to glass tubes (18 by 150 mm) containing 10 ml of medium supplemented with either 50 μM compound (diluted in DMSO; final DMSO concentration, 0.1%) or only 0.1% DMSO as a control. For plant experiments in soil, plantlets were transferred to pots (6 by 6 by 10 cm) filled with a mixture of sand, humus, and washed soil. After 1 week, plants were treated by foliar spraying using either individual compounds at a single concentration (10 μM) (treatment) or water (control/mock) twice a week for 1 month. All plants were grown at 22°C with 60% humidity and a 16-h light/8-h dark photoperiod for 28 days in culture medium and for 41 days in soil. The Finnish National Plant Phenotyping Infrastructure (NaPPI) was used to monitor plant viral disease symptoms as described in our previous study ([33]). Four compounds were tested with the phenotyping platform in two independent batches, each of which included five biological replicates.
(§3) Leaf samples were collected from plants grown in culture medium or soil for 28 or 41 days, respectively, and frozen in liquid nitrogen. Total RNA was extracted using the Spectrum plant total RNA kit (Sigma-Aldrich). First-strand cDNA was synthesized using the Transcriptor first-strand cDNA synthesis kit (Roche, Basel, Switzerland). Gene expression was measured in a final volume of 10 μl (containing 2 μl 10-fold-diluted cDNA, 5 μl SYBR green I master mix [Roche], and 2.5 μM primers) using the LightCycler 480 instrument II (Roche). All RT-qPCR experiments were conducted in triplicate on three and five biological replicates from plants grown in culture medium and soil, respectively. The primer list can be found in our previous study ([33]).
(§4) For HTS, the activity of CSR3 was calculated by measuring the change in fluorescence as a function of the reaction time using MARS Data Analysis software (BMG Labtech). To evaluate the CSR3 inhibition efficiency of individual compounds, the PI of each compound was calculated using the slope values for the sample, positive control, and negative control according to the following equation: PI = 100 × [1 − (sample − positive)/(negative − positive)]%. IC50 and DSS values were calculated using concentration-specific PI values according to a previous study ([31]). Relative gene expression was calculated using the classical 2^−ΔΔ^CT method ([63]).

[3] = test system: SPFMV; conditions: plants in soil, 10 μM foliar spray twice a week for 1 month, vs water-treated
Procedure: as §1, §2, §3, §4

[4] = test system: human enzymes or bacterial proteins; set-up: method as in earlier work; conditions: ref PubChem https://pubchem.ncbi.nlm.nih.gov/compound/7114450#section=Biological-Test-Results; cited from earlier work
[5] = molecular target: CSR3 (RNase III of SPCSV) (Sweet potato chlorotic stunt virus, UniProt Q8JJW8); experiment: Kinetic-based HTS (FRET, labeled 22-bp siRNA cleavage), one concentration; assay type: biochemical; conditions: compound 10 μM, 375 nM siRNA, 37°C
Source text: Based on the catalytic activity of CSR3 on 22-bp siRNA, our kinetic-based HTS assay was designed using distance-dependent FRET technology. Specifically, one strand of siRNA, as a substrate, was labeled with a fluorescent dye (6-carboxyfluorescein [FAM]) at the 5′ end and a quencher (black hole quencher 1 [BHQ1]) at the 3′ end. The initial reaction rate of CSR3 was quantified using the slope of raw fluorescence under an excitation/emission spectrum at 485/520 nm (Fig. 3A). […] In this study, a total of 6,622 compounds (including 6,400 selected from Glide docking and 222 empirically selected compounds for preliminary assay setup) were screened using kinetic-based HTS at a final concentration of 10 μM. All 384-well screening plates contained 32 negative (with CSR3 [i.e., the substrate was successfully cleaved]) and 32 positive (without CSR3 [i.e., the substrate remained intact]) control reaction mixtures. To evaluate the quality of the HTS assay, the Z-factor (Z′) parameter was calculated using the reaction rates of the positive and negative controls ([30]). […]
The HTS assay was designed based on FRET using a 22-bp siRNA (forward sequence, […]; reverse sequence, […]) with a 2-nucleotide (nt) 3′ overhang labeled with the fluorescent dye 6-carboxyfluorescein (FAM) and a black hole quencher (BHQ1) on the sense strand (Metabion, Munich, Germany). […] The plates were read with a PHERAstar FS reader (BMG Labtech, Ortenberg, Germany).
as §4

[6] = SPR dose-response 3 μM to 200 μM, 25°C, numbers match M (cf. Fig 5A)

Row | SMILES | Kd [1, 6] [nM] | log2 fold change in coat protein expression of SPCSV [2] | log2 fold change in coat protein expression of SPFMV [3] | activity in inhibitor screens for human enzymes or bacterial proteins [4] | PI values (percentage of inhibition) [5] [%] | Steady State Affinity ([1]; SPR dose-response 3 μM to 200 μM, 25°C, unit not given, numbers match M (cf. Fig 5A)) | KD (SPR) ([1]; steady-state affinity, Fig 5A)
1 | Cc1ccc(C2Nc3ccc(C(=O)O)cc3C3C=CCC32)cc1 (stereo not drawn) [FIMM031755] | 3760 | −1.30 | −1.33 | affected the activity of chain B of the human cytokine/receptor binary complex | – | – | –
2 | COc1cc(C=C2C(=O)NC(=S)NC2=O)ccc1OCc1ccccc1[N+](=O)[O-] [FIMM101864] | – | – | – | – | 98.4382 | non binder | –
3 | O=C1c2c(O)ccc(O)c2C(=O)c2c(NCCNCCO)ccc(NCCNCCO)c21 [FIMM000490] | 137 | – | – | – | 102.062 | – | –
4 | O=C(O)c1ccc(C2Nc3c(Br)cccc3C3C=CCC32)cc1 (stereo not drawn) [FIMM022230] | – | −0.58 | −0.73 | inactive | – | – | millimolar range
